Laboratory results taken from US20240417437A1, “Linker Polypeptides” (Trutino Biosciences Inc., priority 2021, published 2024).
Where no end group is shown, it is not given here. The star is where a group is joined. EDANS = O=S(=O)(O)c1cccc2c(NCCN*)cccc12

Key:
[1] = target: T1, collagen IV (Homo sapiens, UniProt P02462+P08572); experiment: EDANS linker peptide binding to collagen IV-coated magnetic beads; conditions: peptides 20 μM, 2 hours
T1 construct: purchased Prospec
Protocol: (§1) A series of peptides comprising an MMP cleavable site with or without the addition of a targeting sequence were synthesized and conjugated to the fluorophore EDANS (5-((2-Aminoethyl)amino)naphthalene-1-sulfonic acid) (custom synthesis, ThermoFisher). […] These peptides were then tested for their ability to bind ECM proteins such as heparin, fibronectin and collagen which are found in abundance in tumor stroma.
(§2) For fibronectin and collagen binding peptide assays, streptavidin coupled magnetic beads (Mag Sepharose, Cytiva and Dynabeads, ThermoFisher, respectively) were first incubated with biotin-labelled fibronectin (Cytoskeleton) or biotin-labelled collagen IV (Prospec) for 1 hour with gentle shaking. Following multiple washes, the ECM-coated beads were then incubated with Edans Peptides (20 μM) for 2 hours at room temperature with shaking in neutral or acidic binding buffer. Beads were then washed and resuspended in 100 μL of binding buffer in a black 96-well plate. Peptide binding was quantified by measuring the fluorescence of samples using excitation/emission spectra of EDANS (Ex 340/Em 490).

[2] = pH-sensitive targeting sequences; cited from earlier work
[3] = format: binding; conditions: compared with IL-15Rα-IL-15 fusion protein
Protocol: 96-well plates were coated with 10 μg/mL of Heparin-BSA conjugate (provided by Dr. Mueller, Boerhinger Ingelheim) or control BSA for 18-22 hours at room temperature on shaker (350 rpm). After washing, wells are blocked with 2% milk powder in PBS-0.05% Tween 20 or PBS-0.05% Tween 20/1% BSA for 90 minutes. The fusion proteins were then titrated in either 2% milk powder in PBS-0.05% Tween 20 or 1% BSA/PBS-0.05% Tween 20, pH 7.5 and/or pH 6, and added for 2 hours at room temperature with shaking. After washing, an anti-mouse IL-2 biotin-labelled detection antibody (JES6-5H4, ThermoFisher), anti-6×-His Tag HRP conjugate antibody (Invitrogen, 1 mg/mL, cat #MA1-21315-HRP), or anti-human IgG HRP conjugate antibody (SouthernBiotech) was added, and binding was detected using Ultra Streptavidin HRP (ThermoFisher). The plate was developed by adding the chromogenic tetramethylbenzidine substrate (Ultra TMB, ThermoFisher). The reaction was stopped by addition of 0.5 M H2SO4, and the absorbance was read at 450-650 nm. […] Moreover, when the same pH-dependent heparin binding motif was inserted into different locations of IL-2 fusion proteins, all resulting proteins bound heparin at pH 6 with similar high affinities (FIGS. 4F and 4G). Likewise, similar binding affinities were observed when another heparin targeting sequence was engineered into different sites of IL-2 fusion proteins (FIGS. 4H-4I). […]

[4] = test system: Heparan sulfate proteoglycans; conditions: DTx protein derived sequences; cited from earlier work
[5] = target: Collagen type I (Homo sapiens, UniProt P02452+P08123); conditions: binds to Collagen type I; Note 1 of Table 2; cited from earlier work
[6] = test system: MC38 colorectal cancer cells; experiment: MC38 colorectal cancer tumor growth inhibition study; format: in vivo, C57BL/6 mice; conditions: low dose (1 mg/kg IP BIW)
Protocol: C57BL/6 mice were subcutaneously inoculated with MC38 colorectal cancer cells. When the average tumor volume reached 70-90 mm^3, animals were randomized into 10 groups based on tumor volumes (n 7 or 6 mice per treatment group).
Tumor volumes were measured twice a week for the duration of the study.

[7] = test system: fibronectin; experiment: EDANS linker peptide binding to fibronectin-coated magnetic beads; conditions: peptides 20 μM
Protocol: as §1, §2

[8] = target: fibronectin (Homo sapiens, UniProt P02751); conditions: derived from thrombospondin, cited from earlier work; for Note 1: affinity (binds to Fibronectin): pH-sensitive targeting sequences
Chain of fibronectin (Homo sapiens, UniProt P02751) (P02751 32-2477, species assumed): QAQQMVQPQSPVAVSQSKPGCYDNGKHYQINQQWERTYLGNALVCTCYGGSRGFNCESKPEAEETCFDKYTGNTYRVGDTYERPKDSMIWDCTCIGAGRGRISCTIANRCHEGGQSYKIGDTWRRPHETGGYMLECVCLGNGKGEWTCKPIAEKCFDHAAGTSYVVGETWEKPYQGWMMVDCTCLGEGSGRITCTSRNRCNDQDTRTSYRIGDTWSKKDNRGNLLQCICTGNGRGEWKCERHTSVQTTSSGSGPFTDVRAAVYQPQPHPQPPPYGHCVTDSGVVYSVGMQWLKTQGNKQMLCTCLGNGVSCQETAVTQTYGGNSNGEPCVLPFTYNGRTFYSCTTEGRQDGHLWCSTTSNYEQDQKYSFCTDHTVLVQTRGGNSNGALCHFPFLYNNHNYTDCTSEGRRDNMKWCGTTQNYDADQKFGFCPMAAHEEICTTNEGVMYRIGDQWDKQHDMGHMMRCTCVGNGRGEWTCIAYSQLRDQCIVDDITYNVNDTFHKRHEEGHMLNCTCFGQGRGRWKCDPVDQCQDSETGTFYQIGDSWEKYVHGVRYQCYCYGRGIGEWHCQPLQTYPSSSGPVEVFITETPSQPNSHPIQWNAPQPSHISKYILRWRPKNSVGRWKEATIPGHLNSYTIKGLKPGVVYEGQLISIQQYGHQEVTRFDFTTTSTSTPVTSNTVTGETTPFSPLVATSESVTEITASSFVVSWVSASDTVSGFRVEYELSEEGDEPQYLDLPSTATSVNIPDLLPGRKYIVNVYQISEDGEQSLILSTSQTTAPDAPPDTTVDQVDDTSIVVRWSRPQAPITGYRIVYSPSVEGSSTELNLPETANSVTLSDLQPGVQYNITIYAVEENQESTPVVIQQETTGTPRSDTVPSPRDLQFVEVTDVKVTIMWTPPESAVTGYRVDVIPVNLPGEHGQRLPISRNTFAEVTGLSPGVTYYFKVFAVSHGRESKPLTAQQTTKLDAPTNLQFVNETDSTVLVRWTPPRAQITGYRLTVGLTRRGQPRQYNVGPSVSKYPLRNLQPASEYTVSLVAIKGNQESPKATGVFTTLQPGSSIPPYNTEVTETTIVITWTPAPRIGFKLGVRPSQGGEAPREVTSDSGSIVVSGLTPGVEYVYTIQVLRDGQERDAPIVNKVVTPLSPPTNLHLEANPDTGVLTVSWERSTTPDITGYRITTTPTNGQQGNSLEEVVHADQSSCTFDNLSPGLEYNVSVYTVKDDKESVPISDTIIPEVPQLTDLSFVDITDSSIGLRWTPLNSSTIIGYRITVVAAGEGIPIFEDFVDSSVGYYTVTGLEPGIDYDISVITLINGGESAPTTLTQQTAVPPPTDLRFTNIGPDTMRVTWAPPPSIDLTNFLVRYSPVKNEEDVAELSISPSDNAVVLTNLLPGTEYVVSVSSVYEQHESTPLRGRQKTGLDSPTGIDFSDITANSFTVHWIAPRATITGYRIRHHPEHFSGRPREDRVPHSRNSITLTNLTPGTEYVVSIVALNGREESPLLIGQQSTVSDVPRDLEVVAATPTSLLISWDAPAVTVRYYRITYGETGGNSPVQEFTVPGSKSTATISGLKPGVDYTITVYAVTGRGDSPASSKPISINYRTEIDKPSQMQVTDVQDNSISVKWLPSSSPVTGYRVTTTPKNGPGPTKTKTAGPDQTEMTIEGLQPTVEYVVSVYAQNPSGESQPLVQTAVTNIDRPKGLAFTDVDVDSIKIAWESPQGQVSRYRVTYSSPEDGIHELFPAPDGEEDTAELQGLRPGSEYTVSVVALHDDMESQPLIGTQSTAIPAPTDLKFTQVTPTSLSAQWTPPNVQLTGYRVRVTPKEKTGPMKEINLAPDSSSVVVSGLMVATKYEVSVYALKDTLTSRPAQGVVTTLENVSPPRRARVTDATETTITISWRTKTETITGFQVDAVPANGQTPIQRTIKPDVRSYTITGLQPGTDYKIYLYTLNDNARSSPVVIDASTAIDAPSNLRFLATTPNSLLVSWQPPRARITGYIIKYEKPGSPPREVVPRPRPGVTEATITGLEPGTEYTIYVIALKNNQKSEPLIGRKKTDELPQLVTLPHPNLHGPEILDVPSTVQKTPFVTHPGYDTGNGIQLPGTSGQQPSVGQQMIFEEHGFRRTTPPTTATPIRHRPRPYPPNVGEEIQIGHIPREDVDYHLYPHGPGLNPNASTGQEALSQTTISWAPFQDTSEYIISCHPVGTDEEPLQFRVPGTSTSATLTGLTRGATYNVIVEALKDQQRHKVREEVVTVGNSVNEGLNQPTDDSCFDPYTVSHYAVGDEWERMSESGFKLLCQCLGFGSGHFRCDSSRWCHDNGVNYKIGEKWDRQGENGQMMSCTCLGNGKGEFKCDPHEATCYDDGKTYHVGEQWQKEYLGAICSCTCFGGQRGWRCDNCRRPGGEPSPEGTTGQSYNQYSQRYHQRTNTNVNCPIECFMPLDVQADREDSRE

Chain of Collagen type I (P02452 162-1218 limits assumed): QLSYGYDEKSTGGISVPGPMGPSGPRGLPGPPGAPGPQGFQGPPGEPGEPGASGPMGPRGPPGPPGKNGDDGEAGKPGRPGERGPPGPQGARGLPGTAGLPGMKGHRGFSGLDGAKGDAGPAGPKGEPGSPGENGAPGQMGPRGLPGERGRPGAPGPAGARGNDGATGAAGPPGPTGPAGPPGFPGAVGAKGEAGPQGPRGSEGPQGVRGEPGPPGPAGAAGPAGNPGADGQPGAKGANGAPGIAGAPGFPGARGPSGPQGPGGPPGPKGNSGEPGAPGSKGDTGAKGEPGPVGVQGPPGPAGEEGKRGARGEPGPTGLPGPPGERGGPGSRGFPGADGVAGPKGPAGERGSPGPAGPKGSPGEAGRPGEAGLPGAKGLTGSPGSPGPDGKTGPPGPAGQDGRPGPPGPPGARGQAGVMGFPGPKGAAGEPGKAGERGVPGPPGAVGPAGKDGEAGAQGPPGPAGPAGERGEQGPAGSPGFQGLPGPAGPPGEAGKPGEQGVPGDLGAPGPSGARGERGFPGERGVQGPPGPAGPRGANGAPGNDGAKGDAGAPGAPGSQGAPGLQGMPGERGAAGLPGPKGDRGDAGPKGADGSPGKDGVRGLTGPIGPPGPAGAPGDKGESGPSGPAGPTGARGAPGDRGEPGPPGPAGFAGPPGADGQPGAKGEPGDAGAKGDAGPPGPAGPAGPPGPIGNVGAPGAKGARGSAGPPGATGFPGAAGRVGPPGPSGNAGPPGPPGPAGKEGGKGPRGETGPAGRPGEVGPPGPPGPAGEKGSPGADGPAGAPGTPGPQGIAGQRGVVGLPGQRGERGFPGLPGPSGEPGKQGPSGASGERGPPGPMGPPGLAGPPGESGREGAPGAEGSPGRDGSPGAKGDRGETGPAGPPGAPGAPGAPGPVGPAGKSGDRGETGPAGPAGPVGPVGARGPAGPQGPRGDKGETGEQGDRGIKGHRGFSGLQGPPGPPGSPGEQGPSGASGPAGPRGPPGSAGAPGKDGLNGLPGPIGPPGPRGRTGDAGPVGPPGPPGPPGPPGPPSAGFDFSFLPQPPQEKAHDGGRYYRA
Chain of Collagen type I (P08123 80-1119 limits assumed): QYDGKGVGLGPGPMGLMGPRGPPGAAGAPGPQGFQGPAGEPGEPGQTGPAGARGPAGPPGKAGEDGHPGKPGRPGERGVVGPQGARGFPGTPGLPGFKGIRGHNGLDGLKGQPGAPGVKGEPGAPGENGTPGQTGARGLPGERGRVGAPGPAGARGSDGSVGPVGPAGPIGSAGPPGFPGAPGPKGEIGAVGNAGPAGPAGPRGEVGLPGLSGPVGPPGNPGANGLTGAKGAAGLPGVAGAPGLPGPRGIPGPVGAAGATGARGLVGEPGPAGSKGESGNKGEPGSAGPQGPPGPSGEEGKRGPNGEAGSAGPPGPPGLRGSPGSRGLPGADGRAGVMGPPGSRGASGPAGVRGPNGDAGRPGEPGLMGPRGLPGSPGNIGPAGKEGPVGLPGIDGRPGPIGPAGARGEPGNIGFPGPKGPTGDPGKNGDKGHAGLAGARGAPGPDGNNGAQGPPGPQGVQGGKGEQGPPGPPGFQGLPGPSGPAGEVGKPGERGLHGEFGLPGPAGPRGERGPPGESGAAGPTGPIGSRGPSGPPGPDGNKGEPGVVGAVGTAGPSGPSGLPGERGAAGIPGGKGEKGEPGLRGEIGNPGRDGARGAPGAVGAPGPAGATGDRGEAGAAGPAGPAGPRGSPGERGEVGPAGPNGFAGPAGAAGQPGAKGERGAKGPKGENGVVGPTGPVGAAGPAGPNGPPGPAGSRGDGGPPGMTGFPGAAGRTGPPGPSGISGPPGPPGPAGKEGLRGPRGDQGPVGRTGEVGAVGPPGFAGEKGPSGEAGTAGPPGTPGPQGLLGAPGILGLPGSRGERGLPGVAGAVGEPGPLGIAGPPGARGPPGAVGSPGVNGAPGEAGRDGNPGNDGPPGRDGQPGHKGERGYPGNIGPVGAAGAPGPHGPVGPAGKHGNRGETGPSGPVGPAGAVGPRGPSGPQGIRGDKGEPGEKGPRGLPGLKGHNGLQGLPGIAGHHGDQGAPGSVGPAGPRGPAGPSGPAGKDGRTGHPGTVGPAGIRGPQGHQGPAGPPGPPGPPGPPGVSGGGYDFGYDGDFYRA

peptide 14: EDANS-conjugated KLWVLPKGPLGVRG-* (SEQ ID NO: 672); Collagen IV (KLWVLPKGPLGVRG-{EDANS})
peptide binding to collagen IV (EDANS fluorescence) [1]: strongly bound

peptide 15: EDANS-conjugated GGGSGLHERHLNNN-* (SEQ ID NO: 673); Collagen I (GGGSGLHERHLNNN-{EDANS})
peptide binding to collagen IV (EDANS fluorescence) [1]: bound to a lesser extent

649 (GGKVEHRVKKRPPTWRHNVRAKYT; Synthetic: Heparin; binds to heparin at low pH) [Construct 649]
Note 1: binds to heparin at low pH (affinity) [2]: binds to heparin at low pH

644 (KHAHL; Synthetic: Heparin; binds to heparin at low pH (lower affinity)) [Construct 644]
Note 1: binds to heparin at low pH (affinity) [2]: binds to heparin at low pH (lower affinity)

647 (HKGQHR; Synthetic: Heparin; binds to heparin at low pH (lower affinity)) [Construct 647]
Note 1: binds to heparin at low pH (affinity) [2]: binds to heparin at low pH (lower affinity)

650 (KKRPPTWRHNV; Synthetic: Heparin; binds to heparin at low pH) [Construct 650]
Note 1: binds to heparin at low pH (affinity) [2]: binds to heparin at low pH

643 (TTEPSEEHNHHK; Synthetic: Heparin; binds to heparin at low pH (low affinity)) [Construct 643]
Note 1: binds to heparin at low pH (affinity) [2]: binds to heparin at low pH (low affinity)

Construct WWW: huIL15Ra(1-77)-linker-huIL15-(SG3)-GPLGVRG-gsVRIQRKKEKMKET-3x(G4S)-IL2Rb(1-214)-6xHis
heparin binding of IL-15 linker polypeptide fusion proteins [3]: recovered

640 (DVIRDKTKTKIESLK; Synthetic: Heparan sulfate proteoglycans ; binds to HSGP with low affinity (DTx protein)) [Construct 640]
Note 1: binds to HSGP, affinity [4]: binds to HSGP with low affinity (DTx protein)

639 (NGRKIRMRCRAIDGD; Synthetic: Heparan sulfate proteoglycans ; binds to HSGP with high affinity (DTx protein)) [Construct 639]
Note 1: binds to HSGP, affinity [4]: binds to HSGP with high affinity (DTx protein)

195 (CPKESCNLFVLKD; Synthetic: Collagen type I) [Construct 195]
Kd [5]: 681 nM

Construct NNN: huIL2(C125S)-SGGKLWVLPK-MMPcs1-2x(G4S)-huIL2Ra(1-219;M25I)-GSGGGG-huIgG1(LALA); col IV
efficacy (TGI) in low dose treatment groups [6]: superior efficacy over parental non-targeting constructs

197 (HVWMQAPGGGK; Synthetic: Collagen type I, H-v-F/W-Q/ M-Q-P/A-P/K motif) [Construct 197]
Kd [5]: 61000 nM

642 (KHAHLKKQVSDHIAVY; Synthetic: Heparin; binds to heparin at low pH (high affinity)) [Construct 642]
Note 1: binds to heparin at low pH (affinity) [2]: binds to heparin at low pH (high affinity)

peptide 13: EDANS-conjugated GGGWSHWGPLGVRG-* (SEQ ID NO: 671); pH dependent fibronectin (GGGWSHWGPLGVRG-{EDANS})
peptide binding to fibronectin at pH 6 vs. pH 7.5 [7]: enhanced binding at pH 6
peptide binding to fibronectin (EDANS fluorescence) ([7]; 2 hours): able to bind fibronectin

192 (LRELHLNNN; Synthetic: Collagen type I) [Construct 192]
Kd [5]: 170 nM

655 (KRFKQDGGWSHWSP; Synthetic: Fibronectin; derived from thrombospondin (medium affinity)) [Construct 655]
Note 1: affinity (binds to Fibronectin) [8]: derived from thrombospondin (medium affinity)

645 (TTEPSEEHNHHK; Synthetic: Heparin; binds to heparin at low pH (lower affinity)) [Construct 645]
Note 1: binds to heparin at low pH (affinity) [2]: binds to heparin at low pH (lower affinity)

Construct VVV: huIL15Ra(1-77)-linker-huIL15-(SG3)-GPLGVRG-4x(G4S)-IL2Rb(1-214)-6xHis; no TME
heparin binding of IL-15 linker polypeptide fusion proteins [3]: lost

191 (MIVIELGTNPLKSSGIENGAFQGMKK; Synthetic: Collagen type I) [Construct 191]
Kd [5]: 394 nM

656 (GGWSHWSPWSS; Synthetic: Fibronectin; derived from thrombospondin (medium affinity)) [Construct 656]
Note 1: affinity (binds to Fibronectin) [8]: derived from thrombospondin (medium affinity)

653 (GGWSHW; Synthetic: Fibronectin; derived from thrombospondin (highest affinity)) [Construct 653]
Note 2: pH dependence of binding to Fibronectin [8]: binds better at lower pH
Note 1: affinity (binds to Fibronectin) [8]: (highest affinity)

189 (RRANAALKAGELYKSILYGC; Synthetic: Collagen type I) [Construct 189]
Kd [5]: 860 nM

646 (TTEPSEEHNHHKHHDK; Synthetic: Heparin; binds to heparin at low pH (lower affinity)) [Construct 646]
Note 1: binds to heparin at low pH (affinity) [2]: binds to heparin at low pH (lower affinity)

648 (KVEHRVKKRPPTWRHNVRAKYT; Synthetic: Heparin; binds to heparin at low pH) [Construct 648]
Note 1: binds to heparin at low pH (affinity) [2]: binds to heparin at low pH

190 (RRANAALKAGELYKCILYGC; Synthetic: Collagen type I) [Construct 190]
Kd [5]: 10 nM

194 (TKKTLRT; Synthetic: Collagen type I) [Construct 194]
Kd [5]: ≤ 100000 nM
